# Reference: EPA's ToxValDB 9.5 (doi:10.2903/j.efsa.2018.5405)
# Key:
# Oncorhynchus mykiss = conditions: for LC50: acute, duration: 96 hours, mortality
# Tagia sp. = conditions: chronic/long-term; reproduction
# Colinus virginianus = conditions: acute; oral; mortality
# Bibionidae = conditions: chronic/long-term; duration: 28 days; development
# Apis mellifera = conditions: acute, mortality
# Anas platyrhynchos = conditions: reproductive
# Neomysis kadiakensis = conditions: chronic/long-term; duration: 28 days; development
# Hypoaspis aculeifer = conditions: chronic/long-term; reproduction
# Typhlodromus pyri = assay: LR50; higher = less toxic; conditions: acute; mortality
SMILES,LC50 (Oncorhynchus mykiss) [µg/mL],NOEC (Tagia sp.) [mg/kg],LD50 (Colinus virginianus) [mg/kg-day],"NOEC (Oncorhynchus mykiss; chronic/long-term, duration: 58 days, growth) [µg/L]",NOEC (Bibionidae) [µg/L],LD50 (Apis mellifera; dermal) [µg/piece],"LD50 (Apis mellifera; oral, unspecified) [µg/piece]",NOAEL (Anas platyrhynchos) [mg/kg-day],NOEC (Neomysis kadiakensis) [µg/L],"LD50 (Rattus norvegicus; acute, oral, mortality) [mg/kg-day]",NOAEL (Rattus norvegicus; chronic) [mg/kg-day],"NOAEL (Rattus norvegicus; subchronic, duration: 13 weeks, inhalation, behavior) [mg/kg-day]",NOEC (Hypoaspis aculeifer) [mg/kg],LR50 (Typhlodromus pyri) [g/ha]
O=C(O)c1ccc(F)c(Oc2ccccc2)c1 [4-Fluoro-3-phenoxybenzoic acid],4.06,2.6,,,,,,,,,,,,
CC1(C)C(C=C(Cl)Cl)[C@@H]1C(=O)O[C@@H](C#N)c1ccc(F)c(Oc2ccccc2)c1 (stereo partly drawn) [beta-Cyfluthrin],6.8e-05,,> 58.6,0.0042,0.0057,0.012,0.05,2.6,0.00041,> 8.79,1.39,0.02,0.485,0.0025
